From ChEMBL document CHEMBL5058645, “Data for DCP probe JNJ-6204” (2022)

How the values were obtained:
[1] = biological target: Serine/threonine-protein kinase 38-like (Homo sapiens, UniProt Q9Y2H1); experiment: NDR2(h) Kinase panel; conditions: Compound concentration 1.0 uM, tested as the 2H-labelled form
[2] = biological target: Serine/threonine-protein kinase 24 (Homo sapiens) (UniProt Q9Y6E0); experiment: MST3(h) Kinase panel; conditions: Compound concentration 1.0 uM, tested as the 2H-labelled form
[3] = biological target: Tyrosine-protein kinase TXK (Homo sapiens) (UniProt P42681); experiment: Txk(h) Kinase panel; conditions: Compound concentration 1.0 uM, tested as the 2H-labelled form
[4] = biological target: Cytoplasmic tyrosine-protein kinase BMX (Homo sapiens) (UniProt P51813); experiment: Bmx(h) Kinase panel; conditions: Compound concentration 1.0 uM, tested as the 2H-labelled form
[5] = biological target: BMP-2-inducible protein kinase (Homo sapiens) (UniProt Q9NSY1); experiment: BIKe(h) Kinase panel; conditions: Compound concentration 1.0 uM, tested as the 2H-labelled form
[6] = biological target: Mitogen-activated protein kinase 8 (Homo sapiens) (UniProt P45983); experiment: JNK1alpha1(h) Kinase panel; conditions: Compound concentration 1.0 uM, tested as the 2H-labelled form
[7] = biological target: 5-hydroxytryptamine receptor 1D (Homo sapiens) (UniProt P28221); conditions: Compound concentration 10.0 uM, tested as the 2H-labelled form
[8] = biological target: Casein kinase II subunit alpha (Homo sapiens) (UniProt P68400); experiment: CK2alpha1(h) Kinase panel; conditions: Compound concentration 1.0 uM, tested as the 2H-labelled form
[9] = biological target: D(1A) dopamine receptor (Homo sapiens) (UniProt P21728); conditions: Compound concentration 10.0 uM, tested as the 2H-labelled form
[10] = biological target: Mitogen-activated protein kinase kinase kinase 5 (Homo sapiens) (UniProt Q99683); experiment: ASK1(h) Kinase panel; conditions: Compound concentration 1.0 uM, tested as the 2H-labelled form
[11] = biological target: STE20/SPS1-related proline-alanine-rich protein kinase (Homo sapiens) (UniProt Q9UEW8); experiment: STK39(h) Kinase panel; conditions: Compound concentration 1.0 uM, tested as the 2H-labelled form
[12] = biological target: Death-associated protein kinase 2 (Homo sapiens) (UniProt Q9UIK4); experiment: DAPK2(h) Kinase panel; conditions: Compound concentration 1.0 uM, tested as the 2H-labelled form
[13] = biological target: Serine/threonine-protein kinase 33 (Homo sapiens) (UniProt Q9BYT3); experiment: STK33(h) Kinase panel; conditions: Compound concentration 1.0 uM, tested as the 2H-labelled form
[14] = biological target: 5-hydroxytryptamine receptor 1A (Homo sapiens) (UniProt P08908); conditions: Compound concentration 10.0 uM, tested as the 2H-labelled form
[15] = biological target: Protein-tyrosine kinase 6 (Homo sapiens) (UniProt Q13882); experiment: BRK(h) Kinase panel; conditions: Compound concentration 1.0 uM, tested as the 2H-labelled form
[16] = biological target: Tyrosine-protein kinase receptor TYRO3 (Homo sapiens) (UniProt Q06418); experiment: Rse(h) Kinase panel; conditions: Compound concentration 1.0 uM, tested as the 2H-labelled form
[17] = biological target: Calcium/calmodulin-dependent protein kinase type 1 (Homo sapiens) (UniProt Q14012); experiment: CaMKI(h) Kinase panel; conditions: Compound concentration 1.0 uM, tested as the 2H-labelled form
[18] = biological target: Serine/threonine-protein kinase Sgk2 (Homo sapiens) (UniProt Q9HBY8); experiment: SGK2(h) Kinase panel; conditions: Compound concentration 1.0 uM, tested as the 2H-labelled form
[19] = biological target: Epithelial discoidin domain-containing receptor 1 (Homo sapiens) (UniProt Q08345); experiment: DDR1(h) Kinase panel; conditions: Compound concentration 1.0 uM, tested as the 2H-labelled form
[20] = biological target: Serine/threonine-protein kinase D1 (Homo sapiens) (UniProt Q15139); experiment: PKCmu (h) Kinase panel; conditions: Compound concentration 1.0 uM, tested as the 2H-labelled form
[21] = biological target: Protein kinase C theta type (Homo sapiens) (UniProt Q04759); experiment: PKCtheta (h) Kinase panel; conditions: Compound concentration 1.0 uM, tested as the 2H-labelled form
[22] = biological target: Serine/threonine-protein kinase LATS1 (Homo sapiens) (UniProt O95835); experiment: LATS1(h) Kinase panel; conditions: Compound concentration 1.0 uM, tested as the 2H-labelled form
[23] = biological target: Tyrosine-protein kinase Srms (Homo sapiens) (UniProt Q9H3Y6); experiment: SRMS(h) Kinase panel; conditions: Compound concentration 1.0 uM, tested as the 2H-labelled form
[24] = biological target: Tyrosine-protein kinase ITK/TSK (Homo sapiens) (UniProt Q08881); experiment: Itk(h) Kinase panel; conditions: Compound concentration 1.0 uM, tested as the 2H-labelled form
[25] = biological target: NT-3 growth factor receptor (Homo sapiens) (UniProt Q16288); experiment: TrkC(h) Kinase panel; conditions: Compound concentration 1.0 uM, tested as the 2H-labelled form
[26] = biological target: Serine/threonine-protein kinase 35 (Homo sapiens) (UniProt Q8TDR2); experiment: CLIK1(h) Kinase panel; conditions: Compound concentration 1.0 uM, tested as the 2H-labelled form
[27] = biological target: D(3) dopamine receptor (Homo sapiens, UniProt P35462); conditions: Compound concentration 10.0 uM, tested as the 2H-labelled form
[28] = biological target: Cyclin-dependent kinase 5 (Homo sapiens) (UniProt Q00535); experiment: CDK5/p25(h) Kinase panel; conditions: Compound concentration 1.0 uM, tested as the 2H-labelled form
[29] = biological target: 5-hydroxytryptamine receptor 3A (Homo sapiens) (UniProt P46098); conditions: Compound concentration 10.0 uM, tested as the 2H-labelled form
[30] = biological target: FKBP12A/mTOR (Homo sapiens) (UniProt P62942+P42345); experiment: mTOR/FKBP12(h) Kinase panel; type: protein-complex assay; conditions: Compound concentration 1.0 uM, tested as the 2H-labelled form
[31] = biological target: Dual specificity protein kinase CLK3 (Homo sapiens) (UniProt P49761); experiment: CLK3(h) Kinase panel; conditions: Compound concentration 1.0 uM, tested as the 2H-labelled form
[32] = biological target: NUAK family SNF1-like kinase 2 (Homo sapiens) (UniProt Q9H093); experiment: NUAK2(h) Kinase panel; conditions: Compound concentration 1.0 uM, tested as the 2H-labelled form
[33] = biological target: Mitogen-activated protein kinase kinase kinase 7 (Homo sapiens) (UniProt O43318); experiment: TAK1(h) Kinase panel; conditions: Compound concentration 1.0 uM, tested as the 2H-labelled form
[34] = biological target: Serine/threonine-protein kinase ULK2 (Homo sapiens) (UniProt Q8IYT8); experiment: ULK2(h) Kinase panel; conditions: Compound concentration 1.0 uM, tested as the 2H-labelled form
[35] = biological target: Ephrin type-A receptor 2 (Homo sapiens) (UniProt P29317); experiment: EphA2(h) Kinase panel; conditions: Compound concentration 1.0 uM, tested as the 2H-labelled form
[36] = biological target: Serine/threonine-protein kinase SIK1 (Homo sapiens) (UniProt P57059); experiment: SIK(h) Kinase panel; conditions: Compound concentration 1.0 uM, tested as the 2H-labelled form
[37] = biological target: Wee1-like protein kinase 2 (Homo sapiens) (UniProt P0C1S8); experiment: Wee1B(h) Kinase panel; conditions: Compound concentration 1.0 uM, tested as the 2H-labelled form
[38] = biological target: Serine/threonine-protein kinase ULK1 (Homo sapiens) (UniProt O75385); experiment: ULK1(h) Kinase panel; conditions: Compound concentration 1.0 uM, tested as the 2H-labelled form
[39] = biological target: Dual specificity protein kinase TTK (Homo sapiens) (UniProt P33981); experiment: TTK(h) Kinase panel; conditions: Compound concentration 1.0 uM, tested as the 2H-labelled form
[40] = biological target: SRSF protein kinase 2 (Homo sapiens) (UniProt P78362); experiment: SRPK2(h) Kinase panel; conditions: Compound concentration 1.0 uM, tested as the 2H-labelled form
[41] = biological target: Dual specificity mitogen-activated protein kinase kinase 6 (Homo sapiens) (UniProt P52564); experiment: MKK6(h) Kinase panel; conditions: Compound concentration 1.0 uM, tested as the 2H-labelled form
[42] = biological target: Vascular endothelial growth factor receptor 2 (Homo sapiens) (UniProt P35968); experiment: KDR(h) Kinase panel; conditions: Compound concentration 1.0 uM, tested as the 2H-labelled form
[43] = biological target: Casein kinase I isoform epsilon (Homo sapiens, UniProt P49674); experiment: CK1epsilon(h) Kinase panel; conditions: Compound concentration 1.0 uM, tested as the 2H-labelled form
[44] = biological target: SRSF protein kinase 1 (Homo sapiens) (UniProt Q96SB4); experiment: SRPK1(h) Kinase panel; conditions: Compound concentration 1.0 uM, tested as the 2H-labelled form
[45] = biological target: Beta-adrenergic receptor kinase 1 (Homo sapiens) (UniProt P25098); experiment: GRK2(h) Kinase panel; conditions: Compound concentration 1.0 uM, tested as the 2H-labelled form
[46] = biological target: Tyrosine-protein kinase SYK (Homo sapiens) (UniProt P43405); experiment: Syk(h) Kinase panel; conditions: Compound concentration 1.0 uM, tested as the 2H-labelled form
[47] = biological target: Serine/threonine-protein kinase PLK1 (Homo sapiens) (UniProt P53350); experiment: Plk1(h) Kinase panel; conditions: Compound concentration 1.0 uM, tested as the 2H-labelled form
[48] = biological target: Protein kinase C eta type (Homo sapiens) (UniProt P24723); experiment: PKCeta (h) Kinase panel; conditions: Compound concentration 1.0 uM, tested as the 2H-labelled form
[49] = biological target: Sigma intracellular receptor 2 (Homo sapiens) (UniProt Q5BJF2); conditions: Compound concentration 10.0 uM, tested as the 2H-labelled form
[50] = biological target: D(4) dopamine receptor (Homo sapiens) (UniProt P21917); conditions: Compound concentration 10.0 uM, tested as the 2H-labelled form
[51] = biological target: Mitogen-activated protein kinase kinase kinase 9 (Homo sapiens) (UniProt P80192); experiment: MLK1(h) Kinase panel; conditions: Compound concentration 1.0 uM, tested as the 2H-labelled form
[52] = biological target: Beta-1 adrenergic receptor (Homo sapiens) (UniProt P08588); conditions: Compound concentration 10.0 uM, tested as the 2H-labelled form

Mitogen-activated protein kinase kinase kinase 5 (Homo sapiens), sequence (Q99683 whole entry): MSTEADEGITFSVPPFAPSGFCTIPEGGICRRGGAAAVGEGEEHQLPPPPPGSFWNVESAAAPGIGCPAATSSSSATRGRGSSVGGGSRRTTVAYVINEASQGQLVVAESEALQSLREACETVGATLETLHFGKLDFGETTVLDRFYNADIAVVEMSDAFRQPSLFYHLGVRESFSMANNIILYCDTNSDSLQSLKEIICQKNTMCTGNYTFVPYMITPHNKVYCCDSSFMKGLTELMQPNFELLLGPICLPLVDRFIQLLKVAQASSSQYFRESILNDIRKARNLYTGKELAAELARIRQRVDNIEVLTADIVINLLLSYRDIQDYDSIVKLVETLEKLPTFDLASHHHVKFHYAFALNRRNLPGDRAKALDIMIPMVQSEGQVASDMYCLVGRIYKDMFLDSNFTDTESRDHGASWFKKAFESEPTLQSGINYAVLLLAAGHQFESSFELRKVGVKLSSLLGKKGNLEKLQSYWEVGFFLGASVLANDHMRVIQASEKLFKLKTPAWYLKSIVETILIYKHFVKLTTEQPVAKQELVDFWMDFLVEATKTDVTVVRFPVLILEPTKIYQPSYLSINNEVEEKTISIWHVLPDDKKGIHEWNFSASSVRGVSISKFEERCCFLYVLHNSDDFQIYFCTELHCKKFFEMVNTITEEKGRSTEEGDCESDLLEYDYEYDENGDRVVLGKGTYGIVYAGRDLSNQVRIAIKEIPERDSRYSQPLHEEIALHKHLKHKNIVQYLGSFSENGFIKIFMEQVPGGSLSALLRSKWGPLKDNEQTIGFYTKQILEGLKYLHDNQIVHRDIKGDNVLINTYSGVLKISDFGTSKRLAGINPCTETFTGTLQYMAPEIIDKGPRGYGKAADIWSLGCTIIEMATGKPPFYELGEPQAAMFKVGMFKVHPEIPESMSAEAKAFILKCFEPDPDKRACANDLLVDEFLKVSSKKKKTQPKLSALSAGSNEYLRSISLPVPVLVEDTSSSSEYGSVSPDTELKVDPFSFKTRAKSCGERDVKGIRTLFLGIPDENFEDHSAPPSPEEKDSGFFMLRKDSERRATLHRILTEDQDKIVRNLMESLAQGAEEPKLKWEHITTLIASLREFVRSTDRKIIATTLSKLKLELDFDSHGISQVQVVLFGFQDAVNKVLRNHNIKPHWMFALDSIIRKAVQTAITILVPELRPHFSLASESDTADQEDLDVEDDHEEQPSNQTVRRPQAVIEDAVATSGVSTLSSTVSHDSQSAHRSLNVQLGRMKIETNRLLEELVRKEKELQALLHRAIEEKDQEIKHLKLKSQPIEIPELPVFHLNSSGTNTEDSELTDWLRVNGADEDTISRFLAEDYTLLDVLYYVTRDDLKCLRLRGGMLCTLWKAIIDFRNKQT
Serine/threonine-protein kinase 33 (Homo sapiens), sequence (Q9BYT3 whole entry, looked up): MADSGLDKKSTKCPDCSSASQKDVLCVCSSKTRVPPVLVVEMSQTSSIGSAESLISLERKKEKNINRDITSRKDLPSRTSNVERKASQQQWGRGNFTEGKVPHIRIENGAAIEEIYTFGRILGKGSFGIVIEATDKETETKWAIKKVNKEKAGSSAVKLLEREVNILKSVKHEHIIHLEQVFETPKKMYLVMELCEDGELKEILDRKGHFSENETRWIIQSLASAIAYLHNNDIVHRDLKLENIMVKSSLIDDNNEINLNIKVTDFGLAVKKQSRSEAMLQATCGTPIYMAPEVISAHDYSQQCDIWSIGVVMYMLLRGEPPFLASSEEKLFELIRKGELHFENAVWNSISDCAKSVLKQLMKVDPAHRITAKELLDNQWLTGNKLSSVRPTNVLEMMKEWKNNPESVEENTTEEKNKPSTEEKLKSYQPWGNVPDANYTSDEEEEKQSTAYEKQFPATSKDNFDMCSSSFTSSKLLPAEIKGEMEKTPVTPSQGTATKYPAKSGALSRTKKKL
Calcium/calmodulin-dependent protein kinase type 1 (Homo sapiens), sequence (Q14012 whole entry, looked up): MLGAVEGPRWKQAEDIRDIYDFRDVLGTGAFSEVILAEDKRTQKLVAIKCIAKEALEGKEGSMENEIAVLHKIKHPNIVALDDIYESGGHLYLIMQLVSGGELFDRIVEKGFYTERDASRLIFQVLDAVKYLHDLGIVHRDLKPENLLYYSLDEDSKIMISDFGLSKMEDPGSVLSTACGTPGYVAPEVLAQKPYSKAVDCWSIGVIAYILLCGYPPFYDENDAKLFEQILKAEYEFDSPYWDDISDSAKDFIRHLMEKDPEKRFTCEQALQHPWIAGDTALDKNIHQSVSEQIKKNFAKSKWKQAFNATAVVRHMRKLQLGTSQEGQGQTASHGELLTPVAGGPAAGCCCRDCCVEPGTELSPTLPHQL
Tyrosine-protein kinase ITK/TSK (Homo sapiens), sequence (Q08881 whole entry): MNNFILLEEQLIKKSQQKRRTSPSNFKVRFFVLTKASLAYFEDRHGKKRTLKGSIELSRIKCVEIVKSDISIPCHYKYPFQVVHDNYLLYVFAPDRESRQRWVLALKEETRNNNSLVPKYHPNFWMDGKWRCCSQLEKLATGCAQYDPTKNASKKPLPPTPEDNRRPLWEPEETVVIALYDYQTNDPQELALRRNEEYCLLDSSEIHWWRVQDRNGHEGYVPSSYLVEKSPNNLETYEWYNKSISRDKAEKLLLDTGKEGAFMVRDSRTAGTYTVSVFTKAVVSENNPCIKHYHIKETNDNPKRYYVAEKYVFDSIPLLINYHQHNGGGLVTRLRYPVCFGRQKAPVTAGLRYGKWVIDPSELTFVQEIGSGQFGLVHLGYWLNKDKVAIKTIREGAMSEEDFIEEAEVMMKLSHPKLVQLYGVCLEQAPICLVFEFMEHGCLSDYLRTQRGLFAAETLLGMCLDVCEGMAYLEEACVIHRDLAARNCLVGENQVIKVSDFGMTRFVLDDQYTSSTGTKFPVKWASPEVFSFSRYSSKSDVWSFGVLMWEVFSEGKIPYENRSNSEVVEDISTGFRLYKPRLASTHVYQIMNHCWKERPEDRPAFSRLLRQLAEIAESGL
Tyrosine-protein kinase Srms (Homo sapiens), sequence (Q9H3Y6 whole entry): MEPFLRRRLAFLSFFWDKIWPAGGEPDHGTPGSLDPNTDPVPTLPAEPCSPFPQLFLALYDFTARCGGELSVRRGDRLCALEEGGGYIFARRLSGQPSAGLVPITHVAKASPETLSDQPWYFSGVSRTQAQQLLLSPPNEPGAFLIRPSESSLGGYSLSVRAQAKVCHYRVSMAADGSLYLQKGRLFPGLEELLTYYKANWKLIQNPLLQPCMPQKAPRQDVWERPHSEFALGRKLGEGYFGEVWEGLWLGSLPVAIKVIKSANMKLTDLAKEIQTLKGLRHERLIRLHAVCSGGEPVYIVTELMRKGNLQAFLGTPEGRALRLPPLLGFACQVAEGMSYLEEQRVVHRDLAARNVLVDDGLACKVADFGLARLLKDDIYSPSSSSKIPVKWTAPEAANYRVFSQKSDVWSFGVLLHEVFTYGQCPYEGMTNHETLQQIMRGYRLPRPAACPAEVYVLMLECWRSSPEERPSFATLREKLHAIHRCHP
D(3) dopamine receptor, sequence (P35462 whole entry): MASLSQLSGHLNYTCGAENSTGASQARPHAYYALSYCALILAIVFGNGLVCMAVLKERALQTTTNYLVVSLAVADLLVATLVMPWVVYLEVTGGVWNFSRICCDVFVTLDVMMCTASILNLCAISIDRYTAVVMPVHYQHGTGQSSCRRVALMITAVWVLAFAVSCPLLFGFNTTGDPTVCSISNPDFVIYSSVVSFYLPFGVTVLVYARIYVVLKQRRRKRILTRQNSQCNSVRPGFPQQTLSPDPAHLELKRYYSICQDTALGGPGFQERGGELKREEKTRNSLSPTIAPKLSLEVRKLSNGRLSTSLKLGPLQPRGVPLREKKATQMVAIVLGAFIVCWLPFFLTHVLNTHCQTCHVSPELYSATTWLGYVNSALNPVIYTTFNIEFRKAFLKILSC
Tyrosine-protein kinase TXK (Homo sapiens), sequence (P42681 whole entry): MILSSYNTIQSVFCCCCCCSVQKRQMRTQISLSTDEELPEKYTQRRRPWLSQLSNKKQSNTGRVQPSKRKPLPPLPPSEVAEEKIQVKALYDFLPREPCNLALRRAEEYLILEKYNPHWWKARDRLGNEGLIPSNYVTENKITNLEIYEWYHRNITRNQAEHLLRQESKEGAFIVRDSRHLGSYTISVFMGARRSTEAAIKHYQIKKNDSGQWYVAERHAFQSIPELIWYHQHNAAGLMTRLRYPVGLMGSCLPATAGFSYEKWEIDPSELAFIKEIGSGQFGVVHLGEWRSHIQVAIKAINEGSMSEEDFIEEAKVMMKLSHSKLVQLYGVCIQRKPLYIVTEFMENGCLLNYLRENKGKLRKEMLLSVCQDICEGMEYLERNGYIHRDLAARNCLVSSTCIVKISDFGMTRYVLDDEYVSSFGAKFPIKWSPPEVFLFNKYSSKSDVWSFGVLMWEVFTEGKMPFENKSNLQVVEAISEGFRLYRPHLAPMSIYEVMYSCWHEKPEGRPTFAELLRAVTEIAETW
D(4) dopamine receptor (Homo sapiens), sequence (P21917 whole entry): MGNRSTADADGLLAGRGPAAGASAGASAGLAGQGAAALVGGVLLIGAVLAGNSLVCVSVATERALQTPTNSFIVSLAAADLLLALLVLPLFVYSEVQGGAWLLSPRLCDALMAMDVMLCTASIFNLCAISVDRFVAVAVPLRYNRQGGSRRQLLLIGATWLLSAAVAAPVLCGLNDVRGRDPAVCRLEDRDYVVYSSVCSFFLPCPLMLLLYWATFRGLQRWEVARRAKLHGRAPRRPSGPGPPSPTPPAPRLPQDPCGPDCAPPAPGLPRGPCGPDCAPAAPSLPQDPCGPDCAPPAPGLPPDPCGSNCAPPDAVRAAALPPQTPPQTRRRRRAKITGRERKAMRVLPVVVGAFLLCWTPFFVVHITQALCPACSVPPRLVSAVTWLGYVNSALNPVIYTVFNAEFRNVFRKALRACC
Cyclin-dependent kinase 5 (Homo sapiens), sequence (Q00535 whole entry, looked up): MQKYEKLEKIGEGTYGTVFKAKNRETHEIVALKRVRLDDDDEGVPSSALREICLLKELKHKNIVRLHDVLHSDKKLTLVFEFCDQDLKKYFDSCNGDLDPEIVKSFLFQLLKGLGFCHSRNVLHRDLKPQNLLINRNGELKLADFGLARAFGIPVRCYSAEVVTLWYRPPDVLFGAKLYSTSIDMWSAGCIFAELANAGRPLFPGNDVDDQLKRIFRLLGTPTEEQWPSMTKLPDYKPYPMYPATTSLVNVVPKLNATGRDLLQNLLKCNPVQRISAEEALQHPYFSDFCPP

inhibition [1]: 30%
inhibition [2]: -2%
inhibition [3]: 16%
inhibition [4]: 19%
inhibition [5]: -8%
inhibition [6]: -6%
inhibition [7]: 33.4%
inhibition [8]: 2%
inhibition [9]: -1.8%
inhibition [10]: 12%
inhibition [11]: 11%
inhibition [13]: 5%
inhibition [14]: 1.3%
inhibition [15]: -1%
inhibition [16]: 9%
inhibition [17]: 5%
inhibition [18]: 9%
inhibition [19]: 11%
inhibition [20]: 13%
inhibition [21]: 9%
inhibition [22]: 20%
inhibition [23]: 6%
inhibition [24]: -8%
inhibition [25]: 23%
inhibition [26]: 13%
inhibition [27]: -0.66%
inhibition [28]: 20%
inhibition [29]: 1.04%
inhibition [30]: 5%
inhibition [31]: -9%
inhibition [32]: -1%
inhibition [33]: -5%
inhibition [34]: 17%
inhibition [35]: 17%
inhibition [36]: -9%
inhibition [37]: -1%
inhibition [38]: 9%
inhibition [39]: 10%
inhibition [40]: -8%
inhibition [41]: 9%
inhibition [42]: 2%
inhibition [43]: 96%
inhibition [44]: 2%
inhibition [45]: -8%
inhibition [46]: -8%
inhibition [47]: 15%
inhibition [48]: 19%
inhibition [49]: -3%
inhibition [50]: -5.66%
inhibition [51]: -3%
inhibition [52]: -1.12%
Structure (SMILES): CC1(C)Cn2nc(-c3ccc(F)cn3)c(-c3ccnc4[nH]ncc34)c2CO1
inhibition [12]: -7%
